Columns and labels:
Type in all cases: cell-based
SW1990 cells [1] = assay: Cell viability (DAPI nuclei count, high content imaging); settings: Homo sapiens, SW1990, 72 h, read-out: IC50, viability
Description: (§1) Cell viability, colony formation, sphere formation and growth curve. To quantify viability, cells were plated into 96-well plates (6000/well) one night before treatment. […] After fixation, cell nuclei were stained with DAPI (Invitrogen). Plates were analyzed using MetaXpress High Content Image Acquisition and Analysis System (Molecular Devices).

SW1990GR cells [2] = assay: as above; settings: 72 h, CYM 0-500 nM, 3 days, read-out: IC50, viability
Description: To establish GR cell lines, cells were first cultured with 10 nM GEM till cell growth became stable. […] Once cell growth became stable in 100 nM GEM, cells were expanded in 100 nM GEM and used in assays.
as §1

DU145 cell line = assay: Flow cytometry of TRA-1-81+ cells; settings: DU145, 25 nM CYM, 5 days
Description: (§2) Flow cytometry. TRA-1-60 PerCP-efluor710 (eBioscience, 1:50) and TRA-1-81 PE (eBioscience, 1:100) were used. Cells were blocked with 5% FBS plus mouse IgM isotype control antibody (eBioscience, 1:100) at room temperature for 15 min, then stained on ice for 30 min. Stained cells were resuspended in PBS containing 300 nM DAPI and proceeded to analysis or sorting. Cell apoptosis was analyzed with FITC-AnnexinV labeling reagent (BD). Flow cytometry analysis was carried out on BD FACS Calibur with FlowJo 9.8 software. Sorting was performed with FACSVantage SE (Becton Dickinson).

HCT116 cell line = assay: Flow cytometry of TRA-1-81+ cells; settings: HCT-116, 25 nM CYM, 5 days
Description: as §2

TRA-1-81+ SW1990 cells = assay: Flow cytometry of TRA-1-81+ cells
Description: as §2

TRA-1-81+ SW1990GR cells = assay: Flow cytometry of TRA-1-81+ cells
Description: as §2

SW1990GR cells [3] = assay: Annexin V/DAPI apoptosis by flow cytometry; settings: 100 nM or 200 nM CYM, one day; TRA-1-81+ and TRA-1-81− subpopulations
Description: as §2

[4] = system: UGT1A10 transcript in SW1990 cells; assay: qRT-PCR of UGT1A10 expression; settings: SW1990, CYM treatment
Description: (§3) qRT-PCR. Reverse transcription reaction was prepared with 0.5-2 μg total RNA using High Capacity cDNA Reverse Transcription Kit (Applied Biosystems). Products were diluted 10 folds with DNase&RNase free water as template. qPCR reactions were prepared with 2× LightCycler 480 SYBR Green I Master reagent (Roche) and proceeded in LightCycler 480 II (Roche) with software LightCycler 480 SW1.5.1 for signal acquisition and processing. ACTB was employed as internal reference. Primers were listed below: […]

[5] = system: UGT1A10 transcript in SW1990GR cells; assay: qRT-PCR of UGT1A10 expression
Description: as §3

SW1990 cells [6] = assay: Growth curve / proliferation assay; settings: SW1990, 50 nM CYM
Description: (§4) To quantify growth, Cells were seeded into 96-well plates (2000/well). After overnight incubation, medium with indicated drug was refreshed. Cell proliferation was quantified every 2 days using CellTiter 96® AQueous Non-Radioactive Cell Proliferation Assay (Promega).

SW1990GR cells [7] = assay: Growth curve / proliferation assay; settings: 25 nM CYM
Description: as §4

HPAF-II cells = assay: Cell viability with GEM and CYM; settings: 50 nM GEM and 25 nM CYM, 5 days
Description: (§5) Cell viability, colony formation, sphere formation and growth curve. To quantify viability, cells were plated into 96-well plates (6000/well) one night before treatment. Drugs were then added in indicated dose for 5 days. After fixation, cell nuclei were stained with DAPI (Invitrogen). Plates were analyzed using MetaXpress High Content Image Acquisition and Analysis System (Molecular Devices).

HT-29 cells = assay: Cell viability with GEM and CYM; settings: HT-29, 50 nM GEM and 25 nM CYM, 5 days
Description: as §5

[8] = system: UGT1A10 overexpressing SW1990 cells; assay: Cell viability of UGT1A10 overexpressing cells; settings: 50 nM CYM, control vs UGT1A10 overexpressing SW1990
Source text: To determine whether UTG1A10 is sufficient to induce TRA-1-81 expression and chemoresistance, UGT1A10 was overexpressed ectopically in SW1990 cells (UGT-OE). Cells expressing firefly luciferase were used as control (CTRL). […] Indeed, the viability of UGT-OE cells is higher than control cells following GEM treatment (FIG. 4G). […] In summary, UGT1A10 is both required and sufficient to enhance TRA-1-60 and TRA-1-81 expression and chemoresistance.
LentiLuc-blast and LentiUGT1A10-blast plasmid were generated based on LentiCas9-blast vector (Addgene, 52926). Luciferasec DNA was cloned from pGL3-promoter plasmid (Promega) with PCR amplification and inserted between AgeI and BamHI sites. UGT1A10 cDNA was PCR amplified from plasmid purchased from Dharmacon (MHS6278-202756114) and inserted between XbaI and BamHI sites. Primers were used as below: […]
as §5

In the case of `CO[C@H]1C[C@H](O[C@H]2CC[C@]3(C=O)[C@H]4CC[C@]5(C)[C@@H](C6=CC(=O)OC6)CC[C@]5(O)[C@@H]4CC[C@]3(O)C2)O[C@H](C)[C@H]1O` [CYM, Cymarin], the IC50 (SW1990 cells [1]) is reported as 33.8 ± 2.6 nM, the IC50 (SW1990GR cells [2]) is reported as 40.8 ± 3.1 nM and the “percentage of TRA-1-81+ cells” value (DU145 cell line) is reported as “decreased”. For the same compound, the “percentage of TRA-1-81+ cells” value (HCT116 cell line) was “decreased”, the IC50 (TRA-1-81+ SW1990 cells; Homo sapiens, SW1990, read-out: IC50, repression of TRA-1-81+ cells) was 6.3 ± 2.2 nM and the “TRA-1-81+ cells in time course” value (TRA-1-81+ SW1990 cells; SW1990, 25 nM CYM) was “decrease of TRA-1-81^+ cells over time”. For the same compound, the “percentage of TRA-1-81+ cells with or without acute GEM” value (TRA-1-81+ SW1990 cells; SW1990, 5 days, 25 nM CYM or 100 nM GEM plus 25 nM CYM) was “decreased the percentage of TRA-1-81^+ cells effectively regardless of GEM”, the “TRA-1-81+ cells in time course” value (TRA-1-81+ SW1990GR cells; 25 nM CYM) was “decrease of TRA-1-81^+ cells over time” and the IC50 (TRA-1-81+ SW1990GR cells; flow cytometry, read-out: IC50, decrease of percentage of TRA-1-81+ cells) was 5.1 ± 1.5 nM. The “percentage of Annexin V+/DAPI− (early) and Annexin V+/DAPI+ (late) apoptotic cells” value (SW1990GR cells [3]) was “increased”, the UGT1A10 transcript levels [4] was “decreased” and the “expression of UGT1A10 in TRA-1-81+ and TRA-1-81− subpopulations” value ([5]; 25 nM CYM) was “significantly inhibits”. For the same compound, the UGT1A10 transcript levels ([5]; CYM treatment) was “decreased”, the proliferation (SW1990 cells [6]) was “significantly decreased the proliferation” and the proliferation (SW1990GR cells [7]) was “sufficient to block the proliferation”. For the same compound, the “survival of GEM-resistant cells” value (HPAF-II cells) was “significantly decreased the survival”, the “survival of GEM-resistant cells” value (HT-29 cells) was “significantly decreased the survival” and the “effect of ectopic UGT1A10 expression on Cymarin anti-chemoresistant activity” value [8] was “partially rescues”.
